Data from the NIST ThermoML archive (doi:10.1021/je900596d).

Conditions: Vibrating tube method

FC(F)=C(F)C(F)(F)F [hexafluoropropene]
Conditions | mass density [kg/m3]
358 K, 4209.5 kPa, Liquid | 959.82
358 K, 4244 kPa, Liquid | 962.07
358 K, 4311.4 kPa, Liquid | 966.64
358 K, 4345.1 kPa, Liquid | 968.66
358 K, 4377.8 kPa, Liquid | 970.84
358 K, 4412.5 kPa, Liquid | 972.94
358 K, 4446.5 kPa, Liquid | 974.92
358 K, 4462.6 kPa, Liquid | 975.95
358 K, 4478.8 kPa, Liquid | 976.81
358 K, 4496.2 kPa, Liquid | 977.89
358 K, 4532.3 kPa, Liquid | 980.04
358 K, 4565.8 kPa, Liquid | 981.81
358 K, 4599.8 kPa, Liquid | 983.7
358 K, 4632.6 kPa, Liquid | 985.44
358 K, 4668.1 kPa, Liquid | 987.45
358 K, 4740 kPa, Liquid | 991.23
358 K, 4775.8 kPa, Liquid | 993.1
358 K, 4809.3 kPa, Liquid | 994.65
358 K, 4843.6 kPa, Liquid | 996.44
358 K, 4876.3 kPa, Liquid | 997.93
358 K, 4910.7 kPa, Liquid | 999.61
358 K, 4945.1 kPa, Liquid | 1001.33
358 K, 4979.1 kPa, Liquid | 1002.85
358 K, 5028.3 kPa, Liquid | 1005.04
358 K, 5084.7 kPa, Liquid | 1007.62
358 K, 5195.4 kPa, Liquid | 1012.4
358 K, 5249.7 kPa, Liquid | 1014.83
358 K, 5306.8 kPa, Liquid | 1017.1
358 K, 5363.6 kPa, Liquid | 1019.45
358 K, 5416.2 kPa, Liquid | 1021.54
358 K, 5474.6 kPa, Liquid | 1023.85
358 K, 5533.9 kPa, Liquid | 1026.1
358 K, 5592 kPa, Liquid | 1028.23
358 K, 5702.1 kPa, Liquid | 1032.29
358 K, 5755.2 kPa, Liquid | 1034.16
358 K, 5815.3 kPa, Liquid | 1036.29
358 K, 5871.8 kPa, Liquid | 1038.22
358 K, 5932.6 kPa, Liquid | 1040.24
358 K, 5991.6 kPa, Liquid | 1042.28
358 K, 6074.8 kPa, Liquid | 1044.98
358 K, 6112.3 kPa, Liquid | 1046.22
358 K, 6149.2 kPa, Liquid | 1047.34
358 K, 6186.4 kPa, Liquid | 1048.47
358 K, 6224.4 kPa, Liquid | 1049.67
358 K, 6266.3 kPa, Liquid | 1050.92
358 K, 6304.3 kPa, Liquid | 1052.13
358 K, 6342.4 kPa, Liquid | 1053.2
358 K, 6379.7 kPa, Liquid | 1054.31
358 K, 6416.4 kPa, Liquid | 1055.29
358 K, 6452.8 kPa, Liquid | 1056.39
358 K, 6490 kPa, Liquid | 1057.54
358 K, 6563.2 kPa, Liquid | 1059.62
358 K, 6600.1 kPa, Liquid | 1060.63
358 K, 6637.3 kPa, Liquid | 1061.72
358 K, 6674.3 kPa, Liquid | 1062.71
358 K, 6711.6 kPa, Liquid | 1063.79
358 K, 6747.9 kPa, Liquid | 1064.77
358 K, 6784.3 kPa, Liquid | 1065.78
358 K, 6821 kPa, Liquid | 1066.78
358 K, 6857.4 kPa, Liquid | 1067.85
358 K, 6894.7 kPa, Liquid | 1068.84
358 K, 6931.9 kPa, Liquid | 1069.87
358 K, 6970.4 kPa, Liquid | 1070.83
358 K, 7006.9 kPa, Liquid | 1071.75
358 K, 7152.9 kPa, Liquid | 1075.52
358 K, 7190.1 kPa, Liquid | 1076.36
358 K, 7228 kPa, Liquid | 1077.43
358 K, 7266.4 kPa, Liquid | 1078.28
358 K, 7303.8 kPa, Liquid | 1079.27
358 K, 7341.7 kPa, Liquid | 1080.24
358 K, 7379.5 kPa, Liquid | 1081.09
358 K, 7418.9 kPa, Liquid | 1082.02
358 K, 7494.3 kPa, Liquid | 1083.92
358 K, 7532.3 kPa, Liquid | 1084.8
358 K, 7568.4 kPa, Liquid | 1085.67
358 K, 7605.7 kPa, Liquid | 1086.46
358 K, 7643.1 kPa, Liquid | 1087.34
358 K, 7680.1 kPa, Liquid | 1088.21
358 K, 7718 kPa, Liquid | 1089.17
358 K, 7755.4 kPa, Liquid | 1089.97
358 K, 7792.1 kPa, Liquid | 1090.77
358 K, 7828.3 kPa, Liquid | 1091.56
358 K, 7903.4 kPa, Liquid | 1093.29
358 K, 7941.2 kPa, Liquid | 1094.08
358 K, 7980.6 kPa, Liquid | 1094.93
358 K, 8017.9 kPa, Liquid | 1095.72
358 K, 8056.1 kPa, Liquid | 1096.58
358 K, 8093.2 kPa, Liquid | 1097.39
358 K, 8130.7 kPa, Liquid | 1098.19
358 K, 8167.5 kPa, Liquid | 1098.98
358 K, 8204.2 kPa, Liquid | 1099.77
358 K, 8277.6 kPa, Liquid | 1101.37
358 K, 8354.7 kPa, Liquid | 1102.88
358 K, 8391 kPa, Liquid | 1103.6
358 K, 8427.7 kPa, Liquid | 1104.39
358 K, 8465.5 kPa, Liquid | 1105.17
358 K, 8503.3 kPa, Liquid | 1105.96
358 K, 8541.1 kPa, Liquid | 1106.74
358 K, 8614.7 kPa, Liquid | 1108.07
358 K, 8651.4 kPa, Liquid | 1108.96
358 K, 8689.1 kPa, Liquid | 1109.62
358 K, 8725.5 kPa, Liquid | 1110.44
358 K, 8762.8 kPa, Liquid | 1111.12
358 K, 8836.9 kPa, Liquid | 1112.57
358 K, 8873.4 kPa, Liquid | 1113.15
358 K, 8910.1 kPa, Liquid | 1113.92
358 K, 8946.4 kPa, Liquid | 1114.65
358 K, 8982.6 kPa, Liquid | 1115.32
358 K, 9019.5 kPa, Liquid | 1115.96
358 K, 9058.4 kPa, Liquid | 1116.68
358 K, 9094.5 kPa, Liquid | 1117.44
358 K, 9170.1 kPa, Liquid | 1118.78
358 K, 9207.6 kPa, Liquid | 1119.39
358 K, 9244 kPa, Liquid | 1120.02
358 K, 9318.1 kPa, Liquid | 1121.42
358 K, 9355.8 kPa, Liquid | 1122.09
358 K, 9393.2 kPa, Liquid | 1122.82
358 K, 9429.9 kPa, Liquid | 1123.38
358 K, 9506 kPa, Liquid | 1124.84
358 K, 9543.2 kPa, Liquid | 1125.38
358 K, 9579.6 kPa, Liquid | 1126.21
358 K, 9653.1 kPa, Liquid | 1127.35
358 K, 9689.3 kPa, Liquid | 1128.07
358 K, 9728 kPa, Liquid | 1128.56
358 K, 9764.4 kPa, Liquid | 1129.27
358 K, 9801.8 kPa, Liquid | 1129.98
358 K, 9839.1 kPa, Liquid | 1130.57
358 K, 9875.2 kPa, Liquid | 1131.06
358 K, 9913 kPa, Liquid | 1131.87
358 K, 9951.5 kPa, Liquid | 1132.43
358 K, 9988 kPa, Liquid | 1133.16
358.16 K, 4.9 kPa, Fluid (supercritical or subcritical phases) | 0.14
358.16 K, 5.8 kPa, Fluid (supercritical or subcritical phases) | 0.15
358.16 K, 6.2 kPa, Fluid (supercritical or subcritical phases) | 0.17
